The nature of this assay: antibacterial activity (organism not stated). The format is cell-based. The settings on record: at levels of 250 mcg./ml. The source says:
After overnight development in a system containing n-butanol 60:acetic acid:15: water 25, the strips were air dried and one set was sprayed with Riker penicillinase. Both sets were then subjected to bioautography on B. subtilis.

Turning to `CC(C)=C(C(=O)O)N1C(=O)[C@H]2N=C(Cc3ccccc3)O[C@H]21` [oxazoline carboxylic acid, 2-benzyl-6-(1'-carboxy-2'-methylprop-1'-enyl)-1-oxa-3,6-diaza-4S,5R-bicyclo [3,2,0] hept-2-en-7-one], the antibacterial activity result was “inactive”.

Source of the values: patent publication US3950352A, “2,2-Dimethyl-3R-carboxy-6S-phenyl(or phenoxy)acetamido-1-oxa-4-aza-5R-bicyclo[3,2,0]heptan-7-one and processes for their production” (Queen's University, priority 1974, dated 1976).
